Assay results: paper PMC9046208, “Foldamers reveal and validate therapeutic targets associated with toxic α-synuclein self-assembly” (Nature Communications, 2022)

Columns and labels:
[1] = target: T1, αS seed-catalyzed aggregation (Homo sapiens, UniProt P37840); experiment: Seed-catalyzed ThT aggregation assay (10% WT αS seeds), WT αS; format: biochemical; settings: equimolar ratio
T1 construct: made in house; host or cells: Escherichia coli BL21(DE3), periplasm
Description: (§1) Seed-catalyzed αS aggregation assay was performed similarly to a previously described protocol. Briefly, 100 μM monomeric WT αS solution (200 μL, in 1x PBS buffer) was placed into a ThermoMixer (Eppendorf, Hamberg, Germany) and shook for five days at a rate of […] and 37 °C. The solution was sonicated for 10 min and used as αS seeds. The seed-catalyzed aggregation of WT αS/ αS variants was performed by adding αS seeds (10% seeds, αS in monomeric concentration, v/v) into 140 μL of fresh 100 μM WT αS/ αS variants solution and aggregation was started with constant shaking at a rate of […] and 37 °C. The aggregation of proteins was monitored at the indicated times (See the main manuscript) using the above-mentioned method.
(§2) The ThT aggregation assay for each protein (WT αS and αS variants) in the presence of SK-129 was carried out the above-mentioned method. SK-129 (from 10 mM stock solution in DMSO) was added at an equimolar ratio (1% DMSO, v/v) to the proteins at the start of the aggregation experiment. The concentration of DMSO was kept constant (1%, v/v) in protein (WT αS and αS variants), control, and protein+molecule solutions. The kinetic profiles of protein aggregation were processed using OriginPro software (Version 9.1). Kinetic curves were fit using a built-in sigmoidal fit in the OriginLab.

[2] = system: NL5901; experiment: Motility (activity counts, WMicroTracker ARENA) of C elegans NL5901; format: in vivo; settings: NL5901, 15 µM SK-129 at the larval stage
Description: The assay was carried out based on a previous protocol[57] with slight modifications. On day one, N2 and NL5901 strains were synchronized through the bleaching process involving egglay and the incubation of the eggs at an ambient temperature (~23 °C) on a solution of 3 mL NGM media in 60 mm culture plates (CytoOne, USA Scientific, Ocala, FL). The plates were seeded with 300 µL OP50 at an O.D. of 0.5 for 30 h. Simultaneously, a solution of 15 µM SK-129 (Stock solution concentration = 10 mM in DMSO) was made in M9 buffer and added to two sterilized 35 mm NGM solid media plates (Fisher Scientific, Pittsburgh, PA). The plates were already containing 2 mL of NGM solid media and 75 µM Fluorodeoxyuridine (FUDR) to prevent offspring in the worms. On day two, M9 buffer was used to transfer the worms from 60 mm NGM plates into 35 mm FUDR and SK-129 containing solid media plates (Fisher Scientific, Pittsburgh, PA) and incubated up to day three on these plates. On day four, liquid media was prepared according to the previous protocol[69] with some modifications. […] On day five, motility assay was conducted for worms under different conditions in duplicate using a WMicroTracker Arena plate reader (Phylumtech, Argentina) at ~23 °C for 1 h per day over a period of 12 days. […]

[3] = system: HEK cells expressing αS-A53T-YFP; experiment: Intracellular seed catalyzed aggregation in HEK cells, MTT viability; format: cell-based; settings: 10 µM SK-129 added 8 h after PD seeds, up to four days
Description: The HEK cells (200,000 cells/mL) were plated in an µ-slide eight-well plate (300 µL/well) and incubated at 37 °C and 5% CO2 (g), and allowed to adhere to the plate for 24 h in media (DMEM, 10% FBS, 1% pen/strep). […] The HEK cells were incubated with αS fibrils for 8 h followed by the addition of 10 µM SK-129 for 300 µL media in each well (0.3 µL of 10 mM stock solution in DMSO, total DMSO = 0.1% v,v). The eight-well plate was incubated for a total of 24 h. The eight-well plate after 24 h was used for both confocal imaging and for the cytotoxicity measurements using MTT assay (2 wells/condition, 300 µL/well). In each experiment, 2 wells were used for each condition, including control (only media and DMSO), fibrils, and fibrils+SK-129.
The HEK cells in the eight-well plate were treated with 30 µL of 1x PBS buffer containing MTT dye (5 mg/mL in 1x PBS buffer) to each well. The plates were wrapped in aluminum foil and incubated for 3 h. After 3 h, all liquid was aspirated carefully without disturbing the formazan crystals. To each well, 300 µL of DMSO was added to dissolve the crystals. Once dissolved, the DMSO solution was transferred to a clear 96-well plate (100 µL/well). The absorbance was read on a 96-well plate reader at 570 nm. The cytotoxicity assay was conducted up to four days from when the protein conditions were added to the cells. […]

[4] = target: T2, αS1 seed-catalyzed aggregation (Homo sapiens, UniProt P37840, DEL6-12); experiment: Seed-catalyzed ThT aggregation assay (10% WT αS seeds), αS1; format: biochemical; settings: αS1, equimolar ratio
T2 construct: made in house; host or cells: Escherichia coli BL21(DE3)
Description: as §1, §2

## COC(=O)c1cc(OCC(=O)O)c2cccc(NC(=O)c3cc(OC(C)C)c4cccc(NC(=O)c5cc(OCC(=O)O)c6cccc(NC(=O)c7cc(OC(C)C)c8cccc([N+](=O)[O-])c8n7)c6n5)c4n3)c2n1 [SK-129]
[1]
  effect on seed-catalyzed aggregation: wholly suppressed
[2]
  overall activity (motility): significant improvement in the overall activity
[3]
  cell viability of HEK cells: significantly higher upto four days
[4]
  effect on seed-catalyzed aggregation: wholly suppressed
